From patent US6737383B1, “Herbicidal oxadiazolidines” (priority 1999, dated 2004)

Tests used:
[1] = test system: giant foxtail; assay: Test B pre/postemergence giant foxtail; type: in vivo, Setaria faberii
Procedure, shortened: (§1)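 Test chemicals in a non-phytotoxic solvent mixture with surfactant were sprayed preemergence onto planted seeds and postemergence onto plants 2 to 18 cm tall (1- to 4-leaf stage). After twelve to sixteen days in a greenhouse, injury was visually rated against untreated controls from 0 (no effect) to 10 (complete control).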

[2] = test system: morningglory; assay: Test B pre/postemergence morningglory; type: in vivo, Ipomoea hederacea
Procedure, shortened: as §1

[3] = test system: bedstraw; assay: Test B pre/postemergence bedstraw; type: in vivo, Galium aparine
Procedure, shortened: as §1

[4] = test system: rape; assay: Test B pre/postemergence rape; type: in vivo, Brassica napus
Procedure, shortened: as §1

[5] = test system: wheat; assay: Test B pre/postemergence wheat; type: in vivo, Triticum aestivum
Procedure, shortened: as §1

[6] = test system: crabgrass; assay: Test B pre/postemergence crabgrass; type: in vivo, Digitaria sanguinalis
Procedure, shortened: as §1

[7] = test system: duck salad; assay: Test B flood test duck salad; type: in vivo, Heteranthera limosa
Procedure, shortened: (§2)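 Flood test on plants grown to the 2-leaf stage; treated plants kept in greenhouse twelve to sixteen days, then visually rated against controls on a 0 (no effect) to 10 (complete control) scale.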

[8] = test system: corn; assay: Test B pre/postemergence corn; type: in vivo, Zea mays
Procedure, shortened: as §1

[9] = test system: blackgrass; assay: Test B pre/postemergence blackgrass; type: in vivo, Alopecurus myosuroides
Procedure, shortened: as §1

[10] = test system: rice; assay: Test B flood test rice; type: in vivo, Oryza sativa
Procedure, shortened: as §2

[11] = test system: wild oat; assay: Test B pre/postemergence wild oat; type: in vivo, Avena fatua
Procedure, shortened: as §1

[12] = test system: smallflower flatsedge; assay: Test B flood test smallflower flatsedge; type: in vivo, Cyperus difformis
Procedure, shortened: as §2

[13] = test system: soybean; assay: Test B pre/postemergence soybean; type: in vivo, Glycine max
Procedure, shortened: as §1

[14] = test system: purple nutsedge; assay: Test B pre/postemergence purple nutsedge; type: in vivo, Cyperus rotundus
Procedure, shortened: as §1

[15] = test system: surinam grass; assay: Test B pre/postemergence surinam grass; type: in vivo, Brachiaria decumbens
Procedure, shortened: as §1

[16] = test system: velvetleaf; assay: Test B pre/postemergence velvetleaf; type: in vivo, Abutilon theophrasti
Procedure, shortened: as §1

[17] = Preemergence, Rate 62 g/ha, scale of 0 to 10 where 0 is no effect and 10 is complete control
[18] = Preemergence, Rate 125 g/ha, 0 is no effect, 10 is complete control
[19] = Preemergence, Rate 250 g/ha, scale 0 to 10, 0 is no effect, 10 is complete control
[20] = Preemergence, Rate 500 g/ha, scale of 0 to 10 where 0 is no effect and 10 is complete control
[21] = Rate 62 g/ha, Postemergence, scale of 0 to 10 where 0 is no effect and 10 is complete control
[22] = Rate 125 g/ha, Postemergence, scale 0 to 10
[23] = Rate 500 g/ha, Postemergence, scale 0 to 10
[24] = Rate 62 g/ha, headed Pre-emergence (flood test species), scale 0 to 10 (0 no effect, 10 complete control)
[25] = Rate 125 g/ha, Pre-emergence, flood test species, scale 0 to 10 where 0 is no effect and 10 is complete control
[26] = Rate 250 g/ha, Pre-emergence, flood-test species, scale 0 to 10, 0 is no effect, 10 is complete control
[27] = Rate 500 g/ha, headed Pre-emergence (flood test species), scale 0 to 10 (0 no effect, 10 complete control)

In the case of Cc1nc(C)c(-n2c(=O)on(C(=O)N(c3ccc(F)cc3)C(C)C)c2=O)s1 [Compound 198], the “Giant foxtail plant response rating” value [1, 17] is reported as 0, the “Giant foxtail plant response rating (0 to 10 scale)” value [1, 18] is reported as 0 and the “Giant foxtail plant response rating” value [1, 19] is reported as 0. For the same compound, the “Plant response rating, Giant foxtail” value [1, 20] was 3, the “Giant foxtail plant response rating” value [1, 21] was 0 and the “Giant foxtail plant response rating” value [1, 22] was 0. The “Plant response rating (0 to 10; 0 is no effect, 10 is complete control), Giant foxtail” value ([1]; Rate 250 g/ha, Postemergence) was 0, the “Giant foxtail plant response rating” value [1, 23] was 0 and the “Morningglory plant response rating” value [2, 17] was 0. The “Morningglory plant response rating (0 to 10 scale)” value [2, 18] was 0, the “Morningglory plant response rating” value [2, 19] was 0 and the “Plant response rating, Morningglory” value [2, 20] was 0. For the same compound, the “Morningglory plant response rating” value [2, 21] was 0, the “Morningglory plant response rating” value [2, 22] was 0 and the “Plant response rating (0 to 10; 0 is no effect, 10 is complete control), Morningglory” value ([2]; Rate 250 g/ha, Postemergence) was 2. The “Morningglory plant response rating” value [2, 23] was 3, the “Bedstraw plant response rating” value [3, 17] was 0 and the “Bedstraw plant response rating (0 to 10 scale)” value [3, 18] was 0. For the same compound, the “Bedstraw plant response rating” value [3, 19] was 0, the “Plant response rating, Bedstraw” value [3, 20] was 0 and the “Bedstraw plant response rating” value [3, 21] was 0. The “Bedstraw plant response rating” value [3, 22] was 0, the “Plant response rating (0 to 10; 0 is no effect, 10 is complete control), Bedstraw” value ([3]; Rate 250 g/ha, Postemergence) was 0 and the “Rape plant response rating” value [4, 17] was 0. The “Rape plant response rating (0 to 10 scale)” value [4, 18] was 0, the “Rape plant response rating” value [4, 19] was 0 and the “Plant response rating, Rape” value [4, 20] was 0. The “Rape plant response rating” value [4, 21] was 0, the “Rape plant response rating” value [4, 22] was 0 and the “Plant response rating (0 to 10; 0 is no effect, 10 is complete control), Rape” value ([4]; Rate 250 g/ha, Postemergence) was 0. For the same compound, the “Rape plant response rating” value [4, 23] was 0, the “Wheat plant response rating” value [5, 17] was 0 and the “Wheat plant response rating” value [5, 19] was 0. For the same compound, the “Plant response rating, Wheat” value [5, 20] was 0, the “Wheat plant response rating” value [5, 21] was 0 and the “Wheat plant response rating” value [5, 22] was 0. For the same compound, the “Plant response rating (0 to 10; 0 is no effect, 10 is complete control), Wheat” value ([5]; Rate 250 g/ha, Postemergence) was 0, the “Crabgrass plant response rating” value [6, 17] was 0 and the “Crabgrass plant response rating (0 to 10 scale)” value [6, 18] was 0. The “Crabgrass plant response rating” value [6, 19] was 0, the “Plant response rating, Crabgrass” value [6, 20] was 0 and the “Crabgrass plant response rating” value [6, 21] was 0. The “Crabgrass plant response rating” value [6, 22] was 0, the “Plant response rating (0 to 10; 0 is no effect, 10 is complete control), Crabgrass” value ([6]; Rate 250 g/ha, Postemergence) was 0 and the “Crabgrass plant response rating” value [6, 23] was 0. For the same compound, the “Ducksalad plant response rating” value [7, 24] was 0, the “Ducksalad plant response rating” value [7, 25] was 0 and the “Ducksalad plant response rating” value [7, 26] was 0. For the same compound, the “Plant response rating, Ducksalad” value [7, 27] was 0, the “Corn plant response rating” value [8, 17] was 0 and the “Corn plant response rating (0 to 10 scale)” value [8, 18] was 0. For the same compound, the “Corn plant response rating” value [8, 19] was 0, the “Plant response rating, Corn” value [8, 20] was 0 and the “Corn plant response rating” value [8, 21] was 0. The “Corn plant response rating” value [8, 22] was 0, the “Plant response rating (0 to 10; 0 is no effect, 10 is complete control), Corn” value ([8]; Rate 250 g/ha, Postemergence) was 0 and the “Corn plant response rating” value [8, 23] was 0. For the same compound, the “Blackgrass plant response rating” value [9, 17] was 0, the “Blackgrass plant response rating (0 to 10 scale)” value [9, 18] was 0 and the “Blackgrass plant response rating” value [9, 19] was 0. The “Plant response rating, Blackgrass” value [9, 20] was 0, the “Blackgrass plant response rating” value [9, 21] was 0 and the “Blackgrass plant response rating” value [9, 22] was 0. For the same compound, the “Plant response rating (0 to 10; 0 is no effect, 10 is complete control), Blackgrass” value ([9]; Rate 250 g/ha, Postemergence) was 0, the “Blackgrass plant response rating” value [9, 23] was 0 and the “Rice plant response rating” value [10, 24] was 0. For the same compound, the “Rice plant response rating” value [10, 25] was 0, the “Rice plant response rating” value [10, 26] was 0 and the “Plant response rating, Rice” value [10, 27] was 0. The “Wild oats plant response rating” value [11, 17] was 0, the “Wild oats plant response rating” value [11, 19] was 0 and the “Plant response rating, Wild oats” value [11, 20] was 0. The “Wild oats plant response rating” value [11, 21] was 0, the “Wild oats plant response rating” value [11, 22] was 0 and the “Plant response rating (0 to 10; 0 is no effect, 10 is complete control), Wild oats” value ([11]; Rate 250 g/ha, Postemergence) was 0. For the same compound, the “S. Flatsedge plant response rating” value [12, 24] was 0, the “S. Flatsedge plant response rating” value [12, 25] was 0 and the “S. Flatsedge plant response rating” value [12, 26] was 0. For the same compound, the “S. Flatsedge plant response rating” value ([12]; Rate 500 g/ha, Pre-emergence, flood test species, scale 0 to 10 (0 no effect, 10 complete control)) was 0, the “Soybean plant response rating” value [13, 17] was 0 and the “Soybean plant response rating (0 to 10 scale)” value [13, 18] was 0. The “Soybean plant response rating” value [13, 19] was 0, the “Plant response rating, Soybean” value [13, 20] was 0 and the “Soybean plant response rating” value [13, 21] was 0. The “Soybean plant response rating” value [13, 22] was 0, the “Plant response rating (0 to 10; 0 is no effect, 10 is complete control), Soybean” value ([13]; Rate 250 g/ha, Postemergence) was 0 and the “Soybean plant response rating” value [13, 23] was 1. The “Nutsedge plant response rating” value [14, 17] was 0, the “Nutsedge plant response rating (0 to 10 scale)” value [14, 18] was 0 and the “Nutsedge plant response rating” value [14, 19] was 0. For the same compound, the “Plant response rating, Nutsedge” value [14, 20] was 0, the “Nutsedge plant response rating” value [14, 21] was 0 and the “Nutsedge plant response rating” value [14, 22] was 0. The “Plant response rating (0 to 10; 0 is no effect, 10 is complete control), Nutsedge” value ([14]; Rate 250 g/ha, Postemergence) was 0, the “Nutsedge plant response rating” value [14, 23] was 0 and the “B. signalgrass plant response rating” value [15, 17] was 0. The “B. signalgrass plant response rating (0 to 10 scale)” value [15, 18] was 0, the “B. signalgrass plant response rating” value [15, 19] was 0 and the “Plant response rating, B. signalgrass” value [15, 20] was 0. The “B. signalgrass plant response rating” value [15, 21] was 0, the “B. signalgrass plant response rating” value ([15]; Rate 125 g/ha, Postemergence, scale 0 (no effect) to 10 (complete control)) was 0 and the “Plant response rating, B. signalgrass” value ([15]; Rate 250 g/ha, Postemergence, scale 0 to 10, 0 is no effect, 10 is complete control) was 0. The “B. signalgrass plant response rating” value ([15]; Rate 500 g/ha, Postemergence, scale 0 to 10, 0 no effect, 10 complete control) was 0, the “Velvetleaf plant response rating” value [16, 17] was 0 and the “Velvetleaf plant response rating” value [16, 19] was 0. The “Plant response rating, Velvetleaf” value [16, 20] was 0, the “Velvetleaf plant response rating” value [16, 21] was 0 and the “Velvetleaf plant response rating” value [16, 22] was 0. The “Plant response rating (0 to 10; 0 is no effect, 10 is complete control), Velvetleaf” value ([16]; Rate 250 g/ha, Postemergence) was 0.
